From ChEMBL document CHEMBL4665709, “Rational Avoidance of Protease Cleavage Sites and Symmetrical End-Tagging Significantly Enhances the Stability and Therapeutic Potential of Antimicrobial Peptides” (J Med Chem, 2020)
In brackets after ≈: the same amount, converted by molar mass. Activity calls are given as the source filed them. No cut-off for these calls is given here. Where a SMILES comes first, the peptide text is derived from it.

What was measured:
[1] = Therapeutic index, ratio of MHC for human RBC to geometric mean of peptide MIC for Streptococcus agalactiae H92; type: toxicity; settings: human red blood cells (RBC), read-out: TI
[2] = Therapeutic index, ratio of MHC for human RBC to geometric mean of peptide MIC for Enterococcus faecalis ATCC 29212; type: toxicity; settings: human red blood cells (RBC), read-out: TI
[3] = Therapeutic index, ratio of MHC for human RBC to geometric mean of peptide MIC for Escherichia coli UB1005; type: toxicity; settings: human red blood cells (RBC), read-out: TI
[4] = tested on: Cell membrane; test: Disruption of membrane integrity in Staphylococcus aureus ATCC 29213 assessed as induction of membrane rupture after 1 hr by PI-staining based flow cytometry analysis
[5] = tested on: Salmonella typhimurium; test: Antibacterial activity against Salmonella typhimurium 14028 after 18 to 24 hrs by CLSI-based broth microdilution method; type: functional, Salmonella enterica subsp. enterica serovar Typhimurium; settings: Salmonella enterica, time hrs 18-24
[6] = tested on: Salmonella typhimurium; test: Antibacterial activity against Salmonella typhimurium 7731 after 18 to 24 hrs by CLSI-based broth microdilution method; type: functional, Salmonella enterica subsp. enterica serovar Typhimurium; settings: Salmonella enterica, time hrs 18-24
[7] = Antibacterial activity against Salmonella pullorum 7913 after 18 to 24 hrs by CLSI-based broth microdilution method; type: functional, Salmonella enterica subsp. enterica serovar Pullorum; settings: Salmonella enterica, time hrs 18-24
[8] = tested on: Salmonella enterica; test: Antibacterial activity against Salmonella choleraesuis 503 after 18 to 24 hrs by CLSI-based broth microdilution method; type: functional; settings: time hrs 18-24
[9] = tested on: Enterococcus faecalis; test: Antibacterial activity against Enterococcus faecalis ATCC 29212 after 18 to 24 hrs by CLSI-based broth microdilution method; type: functional; settings: time hrs 18-24
[10] = tested on: Streptococcus agalactiae; test: Antibacterial activity against Streptococcus agalactiae H92 after 18 to 24 hrs by CLSI-based broth microdilution method; type: functional; settings: time hrs 18-24
[11] = tested on: Erythrocyte; test: Hemolytic activity in human RBC assessed as hemolysis; type: ADME, cell-based
[12] = Hemolytic activity in human RBC assessed as hemolysis at 1 to 128 uM relative to control; type: ADME, cell-based, Erythrocyte; settings: human red blood cells (RBC), dose 1-128 µM, read-out: Activity
[13] = Cytotoxicity against HEK-293T cells assessed as cell viability at 128 uM by MTT assay relative to control; type: cell-based; settings: human, read-out: Activity
[14] = tested on: Escherichia coli; test: Antibacterial activity against Escherichia coli ATCC 25922 after 18 to 24 hrs in presence of 1 mM Mg2+ by CLSI-based broth microdilution method; type: functional; settings: time hrs 18-24
[15] = tested on: Escherichia coli; test: Antibacterial activity against Escherichia coli ATCC 25922 after 18 to 24 hrs in presence of 8 uM Zn2+ by CLSI-based broth microdilution method; type: functional; settings: time hrs 18-24
[16] = tested on: Escherichia coli; test: Antibacterial activity against Escherichia coli ATCC 25922 after 18 to 24 hrs in presence of 6 uM Fe3+ by CLSI-based broth microdilution method; type: functional; settings: time hrs 18-24
[17] = tested on: Escherichia coli; test: Antibacterial activity against Escherichia coli ATCC 25922 after 18 to 24 hrs in presence of 100% human serum by CLSI-based broth microdilution method; type: functional; settings: time hrs 18-24
[18] = tested on: Staphylococcus aureus; test: Antibacterial activity against Staphylococcus aureus ATCC 29213 after 18 to 24 hrs in presence of 50% human serum by CLSI-based broth microdilution method; type: functional; settings: time hrs 18-24
[19] = tested on: Escherichia coli; test: Antibacterial activity against Escherichia coli ATCC 25922 measured after 18 to 24 hrs in presence of trypsin by CLSI-based broth microdilution method; type: functional, organism-based; settings: time hrs 18-24
[20] = tested on: Escherichia coli; test: Antibacterial activity against Escherichia coli ATCC 25922 measured after 18 to 24 hrs in presence of chymotrypsin by CLSI-based broth microdilution method; type: functional, organism-based; settings: time hrs 18-24
[21] = tested on: Escherichia coli; test: Antibacterial activity against Escherichia coli ATCC 25922 measured after 18 to 24 hrs in presence of pepsin by CLSI-based broth microdilution method; type: functional, organism-based; settings: time hrs 18-24
[22] = tested on: Staphylococcus aureus; test: Antibacterial activity against Staphylococcus aureus 29213 with 0.0625-2 mg/mL trypsin for 1 hr followed by test compound addition measured after 4 to 8 hrs by CLSI-based broth microdilution method; type: functional, organism-based; settings: time hrs 4-8
[23] = tested on: Staphylococcus aureus; test: Antibacterial activity against Staphylococcus aureus 29213 with 0.0625-2 mg/mL chymotrypsin for 1 hr followed by test compound addition measured after 4 to 8 hrs by CLSI-based broth microdilution method; type: functional, organism-based; settings: time hrs 4-8
[24] = tested on: Escherichia coli; test: Antibacterial activity against Escherichia coli 25922 measured over 40 passages; type: functional, organism-based; settings: ATCC 25922
[25] = Toxicity in C57BL/6 mouse assessed as change in body weigh at 10 mg/kg, ip measured for 5 days; type: organism-based; settings: in vivo, 120 h, time 5 day
[26] = Toxicity in C57BL/6 mouse assessed as effect on alanine aminotransferase level at 10 mg/kg, ip measured after 5 days; type: organism-based; settings: in vivo, 120 h, time 5 day
[27] = Toxicity in C57BL/6 mouse assessed as effect on total bilirubin level at 10 mg/kg, ip measured after 5 days; type: organism-based; settings: in vivo, 120 h, time 5 day
[28] = Toxicity in C57BL/6 mouse assessed as effect on blood urea nitrogen level at 20 mg/kg, ip measured after 5 days; type: organism-based; settings: in vivo, 120 h, time 5 day
[29] = tested on: Escherichia coli; test: Antibacterial activity against Escherichia coli ATCC 25922 infected in C57BL/6 mouse assessed as reduction in bacterial load in spleen at 10 mg/kg, ip measured after 11 hrs (reference value: 6.02 log CFU/g); type: functional
[30] = tested on: RAW264.7; test: Antiinflammatory activity in mouse RAW264.7 cells assessed as inhibition of LPS-induced TNF-alpha production after 24 hrs by ELISA; type: functional, cell-based
[31] = Stability of compound assessed as chymotrypsin (unknown origin)-mediated drug degradation after 8 hrs by RP-HPLC analysis; type: ADME; settings: human
[32] = Stability of compound assessed as chymotrypsin (unknown origin)-mediated drug degradation after 8 hrs by SDS-PAGE analysis; type: ADME; settings: human
[33] = tested on: Staphylococcus aureus; test: Displacement of BODIPY-TR-cadaverine from Staphylococcus aureus LTA after 4 hrs by fluorescence assay
[34] = tested on: Cell membrane; test: Induction of outer membrane permeabilization in Escherichia coli ATCC 25922 after 30 mins by NPN-dye based assay
[35] = tested on: Cell membrane; test: Induction of membrane permeabilization in Escherichia coli ATCC 25922 after 1 hr by PI fluorescence staining-based confocal microscopy analysis
[36] = tested on: Cell membrane; test: Induction of membrane in permeabilization Staphylococcus aureus ATCC 29213 after 1 hr by FITC/PI fluorescence staining-based confocal microscopy analysis
[37] = tested on: Cell membrane; test: Disruption of membrane integrity in Escherichia coli ATCC 25922 assessed as induction of membrane rupture at 2 times MIC after 1 hr by PI-staining based flow cytometry analysis relative to control
[38] = tested on: Cell membrane; test: Induction of morpholoical changes in membrane of Staphylococcus aureus ATCC 29213 assessed as breakage in bacterial membrane at 1 times MIC after 1 hr by scanning electron microscopy; type: subcellular
[39] = tested on: Cell membrane; test: Induction of morpholoical changes in membrane of Staphylococcus aureus ATCC 29213 assessed as fragmentation in bacterial membrane at 1 times MIC after 1 hr by scanning electron microscopy; type: subcellular
[40] = tested on: Cell membrane; test: Induction of structural changes in membrane of Escherichia coli ATCC 25922 assessed as cytoplasmic leakage at 1 times MIC after 1 hr by transmission electron microscopy
[41] = tested on: Cell membrane; test: Induction of structural changes in membrane of Escherichia coli ATCC 25922 assessed as sparsity at 1 times MIC after 1 hr by transmission electron microscopy; type: subcellular
[42] = tested on: Cell membrane; test: Induction of structural changes in membrane of Staphylococcus aureus ATCC 29213 assessed as sparsity at 1 times MIC after 1 hr by transmission electron microscopy; type: subcellular

**Q.** Which selectivity ratio [1] does the source give for `CC[C@H](C)[C@H](N)C(=O)N[C@H](C(=O)N[C@H](C(=O)N[C@@H](CS)C(=O)N[C@@H](CCCNC(=N)N)C(=O)N[C@@H](CCCCN)C(=O)N1CCC[C@H]1C(=O)N[C@H](C(=O)N[C@H](C(=O)N[C@@H](CS)C(=O)N[C@@H](CCCNC(=N)N)C(=O)N[C@@H](CCCCN)C(=O)N1CCC[C@H]1C(=O)N[C@H](C(=O)N[C@H](C(=O)N[C@@H](CS)C(=O)N[C@@H](CCCNC(=N)N)C(=O)N[C@@H](CCCCN)C(=O)N1CCC[C@H]1C(=O)N[C@H](C(=O)N[C@H](C(=O)N[C@@H](CS)C(=O)N[C@@H](CCCNC(=N)N)C(=O)N[C@@H](CCCCN)C(=O)N1CCC[C@H]1C(=O)N[C@H](C(=O)N[C@H](C(=O)N[C@H](C(N)=O)[C@@H](C)CC)[C@@H](C)CC)[C@@H](C)CC)[C@@H](C)CC)[C@@H](C)CC)[C@@H](C)CC)[C@@H](C)CC)[C@@H](C)CC)[C@@H](C)CC)[C@@H](C)CC)[C@@H](C)CC` (H-IIICRKPIICRKPIICRKPIICRKPIII-NH2) here?
**A.** Its selectivity ratio is 28.5.

**Q.** And the selectivity ratio [2]?
**A.** Its selectivity ratio is 28.5.

**Q.** And the selectivity ratio [3]?
**A.** The selectivity ratio was 57.

**Q.** What about the Activity [4] of the same compound?
**A.** Its Activity is “Dose-dependent effect”.

**Q.** And the MIC [5]?
**A.** The MIC was 2 µM (≈ 6.63 µg/mL).

**Q.** And the MIC [6]?
**A.** Its MIC is 2 µM (≈ 6.63 µg/mL).

**Q.** And the MIC [7]?
**A.** The MIC was 4 µM (≈ 13.3 µg/mL).

**Q.** What about the MIC [8] of the same compound?
**A.** Its MIC is 2 µM (≈ 6.63 µg/mL).

**Q.** What about the MIC [9] of the same compound?
**A.** Its MIC is 8 µM (≈ 26.5 µg/mL).

**Q.** And the MIC [10]?
**A.** Its MIC is 2 µM (≈ 6.63 µg/mL).

**Q.** What about the MHC [11] of the same compound?
**A.** The MHC was greater than 128 µM.

**Q.** And the hemolysis at up to 128 µM [12]?
**A.** Its hemolysis at up to 128 µM is less than 5%.

**Q.** What about the viability at 128 µM [13] of the same compound?
**A.** Its viability at 128 µM is greater than 90%.

**Q.** What about the MIC [14] of the same compound?
**A.** The MIC was 4 µM.

**Q.** What about the MIC [15] of the same compound?
**A.** Its MIC is 2 µM.

**Q.** What about the MIC [16] of the same compound?
**A.** Its MIC is 2 µM.

**Q.** What about the MIC [17] of the same compound?
**A.** The MIC was 8 µM.

**Q.** What about the MIC [18] of the same compound?
**A.** Its MIC is 16 µM.

**Q.** What about the Activity [19] of the same compound?
**A.** Its Activity is “Active”.

**Q.** What about the Activity [20] of the same compound?
**A.** The Activity was “Active”.

**Q.** And the Activity [21]?
**A.** Its Activity is “Active”.

**Q.** And the Activity [22]?
**A.** The Activity was “Active”.

**Q.** What about the Activity [23] of the same compound?
**A.** The Activity was “Active”.

**Q.** And the Activity [24]?
**A.** Its Activity is “Active”.

**Q.** And the Activity [25]?
**A.** The Activity was “Non-Toxic”.

**Q.** And the Activity [26]?
**A.** The Activity was “Non-Toxic”.

**Q.** And the Activity [27]?
**A.** Its Activity is “Non-Toxic”.

**Q.** And the Activity [28]?
**A.** Its Activity is “Non-Toxic”.

**Q.** What about the Activity [29] of the same compound?
**A.** Its Activity is 4.89 log10CFU/g.

**Q.** What about the Activity [30] of the same compound?
**A.** The Activity was “Dose-dependent effect”.

**Q.** What about the Stabilty [31] of the same compound?
**A.** The Stabilty was “Stable”.

**Q.** What about the Stabilty [32] of the same compound?
**A.** The Stabilty was “Stable”.

**Q.** What about the Activity [33] of the same compound?
**A.** The Activity was “Dose-dependent effect”.

**Q.** What about the Activity [34] of the same compound?
**A.** Its Activity is “Dose-dependent effect”.

**Q.** And the Activity [35]?
**A.** Its Activity is “Active”.

**Q.** And the Activity [36]?
**A.** The Activity was “Active”.

**Q.** What about the Activity [37] of the same compound?
**A.** The Activity was greater than 90%.

**Q.** And the Activity [38]?
**A.** The Activity was “Active”.

**Q.** And the Activity [39]?
**A.** The Activity was “Active”.

**Q.** And the Activity [40]?
**A.** Its Activity is “Active”.

**Q.** What about the Activity [41] of the same compound?
**A.** The Activity was “Active”.

**Q.** And the Activity [42]?
**A.** Its Activity is “Active”.
